# Experimental data: article PMC8967206, “Pyrimidine-5-carbonitrile based potential anticancer agents as apoptosis inducers through PI3K/AKT axis inhibition in leukaemia K562” (Journal of Enzyme Inhibition and Medicinal Chemistry, 2022)
# Like-named read-outs stand apart in the source and are kept apart here.
# Tests used:
# AKT-1 = AKT-1 (Homo sapiens, UniProt P31749); test: AKT enzyme inhibition assay (ELISA, cell lysates); format: biochemical; details: mean ± SD of three experiments
# Protocol: In brief, cell lysates were collected after treatment with the tested compounds using lysis buffer and centrifuged at 13,000 rpm for 15 min to obtain the cytosolic fraction. Samples were soaked with the kinase diluted buffer and the reaction was initiated by adding 10 µl of diluted ATP to each well, except blanks. Plate was incubated at 30 °C for up to 90 min covered with an adhesive plate sealer with gentle, shaking every 20 min. The reaction was stopped by emptying contents of each well. Of 40 µl of the phospho-specific substrate antibody was added except blank then incubated incubate at room temperature for 60 min, with shaking every 20 min. The liquid was aspirated and the wells washed three times with 1X washing buffer. After the last wash, liquid was aspirated and 40 µl of the diluted Anti-Rabbit IgG: HRP conjugate was added except blank, and incubated at room temperature for 30 min with shaking every 10 min. Plate was washed as described before. Of 60 µl of the TMB Substrate was added to each well and incubated at room temperature for 30–60 min. The reaction was stopped by adding 20 µl of the stop solution to each well. Absorbance was measured at 450 nm. Four concentrations from the tested compounds were prepared ranged from 0.1 to 100 µM and the assay was done in triplicates. […] LY2780301 compound was used as the positive control.
# [1] = tested on: leukaemia (K562) cell line; test: MTT colorimetric cytotoxicity assay, K562; format: cell-based; details: Homo sapiens, 48 h incubation, mean ± SD of three experiments
# Protocol: (§2) Cytotoxicity of our sixteen innovative compounds 4(a–e), 5(a–d), 6, and 7(a–f) together with control was assessed by means of in-vitro toxicology assay kit, MTT based (Sigma Aldrich, St. Louis, MO) against MCF-7 and K562 cell lines incubated in 96 microwell plates and proceeded as reported[32]^,[33]. MTT (3-[4,5-dimethylthiazol-2-yl]-2,5-diphenyl tetrazolium bromide) method measures the activity of living cells through mitochondrial dehydrogenase. Mitochondrial dehydrogenases of viable cells cleave the tetrazolium ring, giving purple formazan crystals that are dissolved in acidified isopropanol and the resulting purple solution is measured spectrophotometrically. The change in cell number is proportional to the intensity of purple colour produced and the degree of cytotoxicity caused by the test compounds. The absorbance at a wavelength of 570 nm was measured using (ROBONIK P2000 spectrophotometer) and the background absorbance of multi-well plates at 690 nm then the absorbance at 690 nm was subtracted from the 570 nm measurement. Five concentrations from each test compound ranging from (0.04 to 100 µM) were prepared and the experiments were done in triplicate.
# [2] = tested on: breast cancer (MCF-7) cell line; test: MTT colorimetric cytotoxicity assay, MCF-7; format: cell-based; details: Homo sapiens, MCF7, 48 h incubation, mean ± SD of three experiments
# Protocol: as §2
# PI3Kγ = molecular target: T1, PI3Kγ (Homo sapiens, UniProt P48736); test: PI3K enzyme inhibition assay (ADP-Glo), PI3Kγ; format: biochemical; details: mean ± SD of three experiments
# T1 construct: purchased BPS Bioscience, San Diego, CA
# Protocol: (§3) The inhibition activities of 4d and 7f against PI3K enzyme were detected using PI3K assay kits and ADP-Glo kinase assay as a detection buffer (BPS Bioscience, San Diego, CA). According to the manufacturer’s instructions, PI3K enzyme was diluted with 2.5x Kinase assay buffer to obtain 4 ng/µl. The assay was performed in 96 well plates as follows: 5 µl of PIP2 substrate was added to each well followed by 5 ul from each inhibitor except for the positive control and blanks where the inhibitor buffers were added instead. Of 5 ul of 12.5 µM ATP was added. The reactions were initiated by adding 10 µl of diluted PI3K enzyme to the positive control and inhibitors wells. Plate was carefully shaked and was incubated at 30 °C for 40 min. After the 40 min incubation, 25 µl of ADP-Glo reagent were added to each well. The plate was covered with aluminium foil and incubated at room temperature for another 45 min. Of 50 µl of Kinase Detection reagent was added to each well. Plate was covered with aluminium foil and incubated at room temperature for extra 30 min. Luminescence was measured using microplate reader. Four concentrations from the two tested compounds ranged from (0.1 to 100 µM) were prepared and the experiment was repeated in triplicate. […] IC50 values were calculated using dose-response curves and linear regression equation.
# PI3Kδ = molecular target: T2, PI3Kδ (Homo sapiens, UniProt O00329); test: PI3K enzyme inhibition assay (ADP-Glo), PI3Kδ; format: biochemical; details: mean ± SD of three experiments
# T2 construct: purchased BPS Bioscience, San Diego, CA
# Protocol: as §3
# [3] = Cytotoxicity on normal fibroblast cell line; format: cell-based; details: human, WI-38 normal fibroblast cells; non-tumorigenic cell line
# [4] = tested on: normal fibroblast cell line (WI-38); test: Cytotoxicity on normal fibroblast cell line; format: cell-based; details: WI-38 versus K562
# [5] = In-vivo acute toxicity study; details: rat, 2 g/kg, female rats, po, observed 14 d, read-out: median lethal dose (LD50)
# Protocol: Five female rats (180–200 g) were used in this test. The animals were fasted for 24 h prior to administration of the test compound. The compound was administered in a dose of 2 g/kg body weight, po . Animals are observed individually and the mortalities were recorded at least once during the first 30 min after dosing, periodically during the first 24 h and daily afterwards, for a total of 14 d[40]. All animals received humane care and experimental procedures were carried out in strict accordance with the health and care guidelines for experimental animals. All experimental operations performed on rats were approved by the Animal Experiment Ethics Committee of Heliopolis University (Approval number HU.REC.A0.23-2021).
# The toxicological profile of the most promising synthesised anticancer compound 7f was evaluated in female rats using the reported method in OECD guidelines. […]
# Cyclin D1 = test: Western blot, Cyclin D1 expression in K562; format: cell-based; details: K562, 48 h; control 0.849
# Protocol: (§1) K562 cells were treated with the most promising compound (7f), for 48 h. Protein from control and treated cells was harvested and the concentration was measured via Bradford protein assay (Bio-Rad, Hercules, CA). The samples were loaded and separated by sodium dodecyl sulphate (SDS)-polyacrylamide gel electrophoresis and then transferred onto a polyvinylidene difluoride (PVDF) membrane. Western blot analysis was performed according to previously described.
# NFkb = test: Western blot, NFkb expression in K562; format: cell-based; details: K562, 48 h; control 0.719
# Protocol: as §1
# PI3K = test: Western blot, PI3K expression in K562; format: cell-based; details: K562, 48 h; control 0.881
# Protocol: as §1
# K562 cells [6] = test: Annexin-V-FITC apoptosis assay; format: cell-based; details: K562, 48 h
# Protocol: Apoptosis induction was assayed by staining K562 cells with Annexin-V (fluorescein isothiocyanate) and the counterstaining PI using the Annexin-V-FITC/PI apoptosis detection kit (BD Biosciences, San Diego, CA) according to the manufacturer’s instructions. Cells were exposed to the tested compound for 48 h. After that, the cells were collected by trypsinisation and 0.5 × 10^6 cells and washed twice with phosphate-buffered saline (PBS) followed by staining with 5 µl Annexin-V-FITC and 5 µl PI in 1 × binding buffer for 15 min at room temperature in the dark. FACS Calibre flow cytometer (BD Biosciences, San Diego, CA)[26]^,[36]^,[37] was used for analyses.
# Data of the current research highlighted that treating Leukaemia K562 cells for 48 h with the compound 7f caused an increase in the percentage of Annexin-V positive apoptotic cells both in the early and late stage which represents a total significant 17-fold increase compared to the control.
# p-AKT = test: Western blot, p-AKT expression in K562; format: cell-based; details: K562, 48 h; control 0.692
# Protocol: as §1
# K562 cells [7] = test: Cell cycle analysis (PI flow cytometry); format: cell-based
# Protocol: Cell cycle analysis was determined by propidium iodide (PI) flow cytometry kit/BD. K562 cells were treated by compound 7f at its IC50 concentration. Then cells were washed in PBS, fixed in cold 70% ethanol for 30 min, washed twice in PBS, and centrifuged to remove supernatant, after that, cells were treated with 0.1 mg/ml ribonuclease, stained with 0.05 mg/ml PI. The results were analysed by flow cytometry using FACS calibre and cell cycle distribution were calculated and accomplished as reported[26]^,[34]^,[35].
# As reported in the literature, inhibition of PI3K/AKT pathway affects the cell survival and proliferation[8]^,[9]. Thus, to investigate the effect of compound 7f in PI3K/Akt dual inhibition on cell cycle progression, cell cycle analysis was performed by flowcytometric analysis as reported[34]^,[35] on K562 cells treated with compound 7f. The outcomes presented in Table 4 indicated the interference with the cell cycle distribution, following 7f treatment, where there was a marked increase in the cells in pre-G1 phase by nearly 17-fold as compared to the control.
# p-PI3K = test: Western blot, p-PI3K expression in K562; format: cell-based; details: K562, 48 h; control 0.639
# Protocol: as §1
# AKT = test: Western blot, AKT expression in K562; format: cell-based; details: K562, 48 h; control 0.744
# Protocol: as §1
# [8] = set-up: method as in PMID 32659486; details: printed in Figure 4, target not given; cited from earlier work
# [9] = K562, treated at IC50 concentration
# T2 sequence (O00329 whole entry): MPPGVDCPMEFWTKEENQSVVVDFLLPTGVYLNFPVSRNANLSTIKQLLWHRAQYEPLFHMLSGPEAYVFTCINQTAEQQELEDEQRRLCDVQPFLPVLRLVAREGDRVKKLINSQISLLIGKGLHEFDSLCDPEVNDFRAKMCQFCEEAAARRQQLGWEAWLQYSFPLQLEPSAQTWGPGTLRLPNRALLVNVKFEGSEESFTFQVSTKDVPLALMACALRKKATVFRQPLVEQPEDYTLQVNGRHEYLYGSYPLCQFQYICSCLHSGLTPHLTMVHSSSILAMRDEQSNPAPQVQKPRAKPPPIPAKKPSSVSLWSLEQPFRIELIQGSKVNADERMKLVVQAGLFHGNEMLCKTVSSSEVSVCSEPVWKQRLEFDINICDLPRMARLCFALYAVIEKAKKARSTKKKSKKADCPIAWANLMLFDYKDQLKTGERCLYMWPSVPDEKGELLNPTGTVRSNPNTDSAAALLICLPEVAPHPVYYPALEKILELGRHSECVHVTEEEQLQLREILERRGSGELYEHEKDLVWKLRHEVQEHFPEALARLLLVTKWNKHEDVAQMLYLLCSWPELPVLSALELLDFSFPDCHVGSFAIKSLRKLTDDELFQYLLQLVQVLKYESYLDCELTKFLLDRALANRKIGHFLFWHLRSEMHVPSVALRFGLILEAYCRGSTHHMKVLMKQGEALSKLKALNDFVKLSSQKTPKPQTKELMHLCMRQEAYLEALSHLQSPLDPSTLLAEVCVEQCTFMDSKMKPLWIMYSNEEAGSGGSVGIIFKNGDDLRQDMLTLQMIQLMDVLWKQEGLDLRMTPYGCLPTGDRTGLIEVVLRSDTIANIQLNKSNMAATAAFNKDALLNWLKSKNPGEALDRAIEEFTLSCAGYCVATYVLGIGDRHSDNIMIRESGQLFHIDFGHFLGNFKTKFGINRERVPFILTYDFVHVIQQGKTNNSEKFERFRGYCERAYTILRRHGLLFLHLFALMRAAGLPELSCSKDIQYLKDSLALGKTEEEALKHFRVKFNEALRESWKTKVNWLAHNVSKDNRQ
# T2 sequence (P27986 whole entry partner): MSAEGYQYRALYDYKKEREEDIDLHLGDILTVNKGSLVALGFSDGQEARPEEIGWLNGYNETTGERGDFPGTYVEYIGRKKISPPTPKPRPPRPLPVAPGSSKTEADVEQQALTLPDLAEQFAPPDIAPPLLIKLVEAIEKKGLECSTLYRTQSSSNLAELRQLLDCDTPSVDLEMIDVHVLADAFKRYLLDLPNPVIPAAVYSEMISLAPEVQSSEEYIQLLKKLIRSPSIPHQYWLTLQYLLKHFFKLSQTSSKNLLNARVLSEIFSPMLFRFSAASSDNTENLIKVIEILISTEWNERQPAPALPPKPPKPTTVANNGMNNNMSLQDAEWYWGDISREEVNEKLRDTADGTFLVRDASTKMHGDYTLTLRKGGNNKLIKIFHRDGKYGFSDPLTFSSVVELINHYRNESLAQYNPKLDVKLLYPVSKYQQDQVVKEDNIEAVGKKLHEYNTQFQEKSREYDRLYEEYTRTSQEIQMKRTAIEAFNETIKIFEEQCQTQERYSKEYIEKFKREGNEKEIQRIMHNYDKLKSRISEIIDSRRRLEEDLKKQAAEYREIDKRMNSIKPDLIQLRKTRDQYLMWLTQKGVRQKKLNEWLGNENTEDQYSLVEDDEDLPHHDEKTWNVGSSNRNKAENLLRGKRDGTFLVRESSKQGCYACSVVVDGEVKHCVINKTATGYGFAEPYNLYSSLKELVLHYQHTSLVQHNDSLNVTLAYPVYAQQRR
# T1 sequence (P48736 whole entry): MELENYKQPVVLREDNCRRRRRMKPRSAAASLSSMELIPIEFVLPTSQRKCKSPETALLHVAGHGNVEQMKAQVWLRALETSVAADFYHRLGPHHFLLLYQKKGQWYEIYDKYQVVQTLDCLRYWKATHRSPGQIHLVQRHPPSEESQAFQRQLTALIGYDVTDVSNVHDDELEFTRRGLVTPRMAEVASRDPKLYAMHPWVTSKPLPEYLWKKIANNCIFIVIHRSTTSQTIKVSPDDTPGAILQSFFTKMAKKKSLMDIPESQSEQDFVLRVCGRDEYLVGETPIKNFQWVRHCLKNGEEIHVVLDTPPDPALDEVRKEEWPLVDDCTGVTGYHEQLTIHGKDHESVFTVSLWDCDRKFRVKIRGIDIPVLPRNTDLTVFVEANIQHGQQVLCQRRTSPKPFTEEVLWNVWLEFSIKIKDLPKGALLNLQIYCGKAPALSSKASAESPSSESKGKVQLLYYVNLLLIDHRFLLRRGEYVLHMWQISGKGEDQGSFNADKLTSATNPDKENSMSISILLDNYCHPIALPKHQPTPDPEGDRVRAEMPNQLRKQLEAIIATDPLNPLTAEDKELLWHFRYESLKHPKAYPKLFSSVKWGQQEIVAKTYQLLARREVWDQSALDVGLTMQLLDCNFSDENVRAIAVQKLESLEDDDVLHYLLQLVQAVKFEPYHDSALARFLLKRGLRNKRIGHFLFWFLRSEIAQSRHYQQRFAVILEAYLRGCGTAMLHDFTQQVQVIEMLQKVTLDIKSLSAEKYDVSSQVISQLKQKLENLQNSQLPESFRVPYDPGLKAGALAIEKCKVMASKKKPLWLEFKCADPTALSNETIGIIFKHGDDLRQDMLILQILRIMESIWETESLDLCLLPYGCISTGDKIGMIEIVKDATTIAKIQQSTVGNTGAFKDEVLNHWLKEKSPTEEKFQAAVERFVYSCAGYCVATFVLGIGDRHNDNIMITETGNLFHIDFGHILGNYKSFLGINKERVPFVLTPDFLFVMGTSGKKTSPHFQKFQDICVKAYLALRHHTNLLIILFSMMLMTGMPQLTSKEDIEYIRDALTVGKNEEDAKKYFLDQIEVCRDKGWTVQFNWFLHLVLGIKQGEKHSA
# Chain of AKT-1 (P31749 whole entry): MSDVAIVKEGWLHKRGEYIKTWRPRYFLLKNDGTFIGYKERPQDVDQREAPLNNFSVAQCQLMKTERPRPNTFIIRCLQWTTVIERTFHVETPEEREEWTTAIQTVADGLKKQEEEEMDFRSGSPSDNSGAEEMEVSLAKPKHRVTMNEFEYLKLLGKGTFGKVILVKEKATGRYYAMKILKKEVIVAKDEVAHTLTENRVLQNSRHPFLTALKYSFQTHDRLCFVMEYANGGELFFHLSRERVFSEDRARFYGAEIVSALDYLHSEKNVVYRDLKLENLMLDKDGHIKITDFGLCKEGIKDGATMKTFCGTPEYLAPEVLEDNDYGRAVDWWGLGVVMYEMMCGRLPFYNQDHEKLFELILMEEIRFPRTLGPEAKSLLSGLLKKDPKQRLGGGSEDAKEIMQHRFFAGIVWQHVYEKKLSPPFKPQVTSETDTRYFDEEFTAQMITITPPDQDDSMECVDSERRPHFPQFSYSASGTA
smiles,measurement,setting,value
CN(C)CCn1cc(-c2ccc(F)c(C(F)(F)F)c2)nc1C1CCN(c2ncnc3c2CC(=O)N3)CC1 [LY2780301],IC50,AKT-1,4.62 ± 0.24 µM
"COc1ccc(-c2nc(SC)nc(Nc3ccc(C)cc3)c2C#N)cc1 [5a, 4-(4-Methoxyphenyl)-2-(methylthio)-6-(p-tolylamino)pyrimidine-5-carbonitrile]",IC50,[1],26.3 ± 1.25 µM
same,IC50,[2],21.3 ± 1.16 µM
same,melting point,,270 to 272 °C
"COc1ccc(-c2nc(SC)nc(N3CCN(c4ccccc4)CC3)c2C#N)cc1 [4c, 4-(4-Methoxyphenyl)-2-(methylthio)-6-(4-phenylpiperazin-1-yl)pyrimidine-5-carbonitrile]",IC50,[1],3.86 ± 0.18 µM
same,IC50,[2],6.64 ± 0.36 µM
"COc1ccc(-c2nc(SC)nc(N3CCN(c4ccccc4F)CC3)c2C#N)cc1 [4d, 4-(4-(2-Fluorophenyl)piperazin-1-yl)-6-(4-methoxyphenyl)-2-(methylthio)pyrimidine-5-carbonitrile]",IC50,PI3Kγ,35.1 ± 1.82 µM
same,IC50,[1],1.06 ± 0.05 µM
same,IC50,[2],0.8 ± 0.25 µM
same,melting point,,142 to 144 °C
same,IC50,PI3Kδ,23.9 ± 1.2 µM
same,IC50,[3],116 ± 7.03 µM
same,SI (selectivity index),[4],109.72
"COc1ccc(-c2nc(SC)nc(NN=Cc3ccc(Br)cc3)c2C#N)cc1 [7d, 4-(2-(4-Bromobenzylidene)hydrazineyl)-6-(4-methoxyphenyl)-2-(methylthio)pyrimidine-5-carbonitrile]",IC50,[1],44.3 ± 2.1 µM
same,IC50,[2],56 ± 3.05 µM
same,melting point,,246 to 248 °C
"COc1ccc(-c2nc(SC)nc(NN=Cc3ccc([N+](=O)[O-])cc3)c2C#N)cc1 [7e, 4–(4-Methoxyphenyl)-2-(methylthio)-6-(2-(4-nitrobenzylidene)hydrazineyl)pyrimidine-5-carbonitrile]",IC50,[1],5.36 ± 0.25 µM
same,IC50,[2],7.11 ± 0.39 µM
same,melting point,,248 to 250 °C
COc1ccc(-c2nc(SC)nc(Nc3ccc(Cl)cc3)c2C#N)cc1 [5c],IC50,[1],5.82 ± 0.28 µM
same,IC50,[2],46.9 ± 2.55 µM
"COc1ccc(-c2nc(SC)nc(NN=Cc3ccc(Cl)cc3)c2C#N)cc1 [7c, 4-(2-(4-Chlorobenzylidene)hydrazineyl)-6-(4-methoxyphenyl)-2-(methylthio)pyrimidine-5-carbonitrile]",IC50,[1],3.76 ± 0.18 µM
same,IC50,[2],7.42 ± 0.4 µM
same,melting point,,266 to 268 °C
"COc1ccc(-c2nc(SC)nc(N3CCN(c4ccccc4OC)CC3)c2C#N)cc1 [4e, 4-(4-Methoxyphenyl)-6-(4-(2-methoxyphenyl)piperazin-1-yl)-2-(methylthio)pyrimidine-5-carbonitrile]",IC50,[1],34.8 ± 1.65 µM
same,IC50,[2],15.6 ± 0.85 µM
same,melting point,,170 to 172 °C
"COc1ccc(Nc2nc(SC)nc(-c3ccc(OC)cc3)c2C#N)cc1 [5b, 4-(4-Methoxyphenyl)-6-((4-methoxyphenyl)amino)-2-(methylthio)pyrimidine-5-carbonitrile]",IC50,[1],46.3 ± 2.2 µM
same,IC50,[2],125 ± 6.82 µM
same,melting point,,238 to 240 °C
"COc1ccc(-c2nc(SC)nc(NN=Cc3cc(OC)c(OC)c(OC)c3)c2C#N)cc1 [7f, 4-(4-Methoxyphenyl)-2-(methylthio)-6-(2-(3,4,5-trimethoxybenzylidene)hydrazineyl)pyrimidine-5-carbonitrile]",LD50 at 14 d,[5],> 2000 mg/kg
same,Western blot [OD] Cyclin D1,Cyclin D1,0.383 OD
same,IC50,PI3Kγ,6.99 ± 0.36 µM
same,IC50,[1],2.62 ± 0.12 µM
same,Western blot [OD] NFkb,NFkb,0.402 OD
same,Western blot [OD] PI3K,PI3K,0.219 OD
same,IC50,[2],3.22 ± 0.18 µM
same,IC50,PI3Kδ,4.01 ± 0.55 µM
same,Apoptosis% Early,K562 cells [6],3.19%
same,Apoptosis% Late,K562 cells [6],19.04%
same,Apoptosis% Total,K562 cells [6],31.72%
same,Necrosis,K562 cells [6],9.49%
same,Total increase of Annexin-V positive apoptotic cells compared to the control,K562 cells [6],17 fold
same,IC50,[3],34.8 ± 2.11 µM
same,SI (selectivity index),[4],13.29
same,Western blot [OD] p-AKT,p-AKT,0.316 OD
same,"Cell cycle analysis, Comment",K562 cells [7]; K562,Cell growth arrest at S phase
same,Increase in S-phase compared to the control,K562 cells [7]; K562,~1.3 fold
same,Increase in cells in pre-G1 phase compared to the control,K562 cells [7]; K562,~17 fold
same,DNA content % %G0-G1,K562 cells [7]; [9],44.97%
same,DNA content % %Pre-G1,K562 cells [7]; [9],31.72%
same,Western blot [OD] p-PI3K,p-PI3K,0.281 OD
same,Western blot [OD] AKT,AKT,0.402 OD
"COc1ccc(-c2nc(SC)nc(N3CCN(C)CC3)c2C#N)cc1 [4b, 4-(4-Methoxyphenyl)-6-(4-methylpiperazin-1-yl)-2-(methylthio)pyrimidine-5-carbonitrile]",IC50,[1],93.6 ± 4.44 µM
same,IC50,[2],56.3 ± 3.06 µM
"COc1ccc(-c2nc(SC)nc(Nc3ccc(Br)cc3)c2C#N)cc1 [5d, 4-((4-Bromophenyl)amino)-6-(4-methoxyphenyl)-2-(methylthio)pyrimidine-5-carbonitrile]",IC50,[1],5.52 ± 0.26 µM
same,IC50,[2],15.7 ± 0.85 µM
"COc1ccc(C=NNc2nc(SC)nc(-c3ccc(OC)cc3)c2C#N)cc1 [7b, 4-(2-(4-Methoxybenzylidene)hydrazineyl)-6-(4-methoxyphenyl)-2-(methylthio)pyrimidine-5-carbonitrile]",IC50,[1],16.8 ± 0.8 µM
same,IC50,[2],22.9 ± 1.24 µM
same,melting point,,244 to 246 °C
"COc1ccc(-c2nc(SC)nc(N3CCNCC3)c2C#N)cc1 [4a, 4-(4-Methoxyphenyl)-2-(methylthio)-6-(piperazin-1-yl)pyrimidine-5-carbonitrile]",IC50,[1],7.97 ± 0.38 µM
same,IC50,[2],2.54 ± 0.14 µM
"COc1ccc(-c2nc(SC)nc(NN)c2C#N)cc1 [compound 6, 4-Hydrazineyl-6-(4-methoxyphenyl)-2-(methylthio)pyrimidine-5-carbonitrile]",IC50,[1],6.67 ± 0.32 µM
same,IC50,[2],3.49 ± 0.19 µM
same,melting point,,270 to 272 °C
"COc1ccc(-c2nc(SC)nc(NN=Cc3ccc(C)cc3)c2C#N)cc1 [7a, 4–(4-Methoxyphenyl)-6-(2-(4-methylbenzylidene)hydrazineyl)-2-(methylthio)pyrimidine-5-carbonitrile]",IC50,[1],22.8 ± 1.08 µM
same,IC50,[2],30.5 ± 1.66 µM
same,melting point,,246 to 248 °C
COc1ccc(-c2nc(N/N=C/c3c[nH]c4ccccc34)nc(N3CCOCC3)c2C#N)cc1 [VIII],IC50,[8],10.9 µM
"O=c1cc(N2CCOCC2)oc2c(-c3ccccc3)cccc12 [LY294002, reference compound]",IC50,PI3Kδ,13.4 ± 0.67 µM
